{"source": "patent US20250250245A1", "about": "“TRIMETAZIDINE SALTS” (LES LABORATOIRES SERVIER, priority 2021, published 2025)", "note": "Counter-ions that a name gives are not always drawn.", "data": [{"experiment": "Trimetazidine nitrosamine formation in aqueous sodium nitrite solution (LC/MS dosage)", "type": "physicochemical", "conditions": "6 mg/mL in trimetazidine equivalent (low solubility), 40° C. for 22 hours", "description": "(§1) In order to model the formation of trimetazidine nitrosamine during the formulation process, an aqueous solution of sodium nitrite was added to the trimetazidine salt. The sodium nitrite mimics the presence of nitrites in water and/or excipients during a drug product manufacturing process.\n(§2) The trimetazidine salt, in an amount corresponding to 600 mg trimetazidine, was placed in 2 mL volumetric flask. […]\n(§3) The solution was stirred at 40° C. for 22 hours. The trimetazidine nitrosamine dosage was performed by LC/MS.", "units": {"Trimetazidine nitrosamine content": "ppm"}, "values": [{"compound": "COc1ccc(CN2CCNCC2)c(OC)c1OC.O=C(O)C(=O)O.O=C(O)C(=O)O", "note": "[Comparative Example D]", "Trimetazidine nitrosamine content": 83.1}]}, {"experiment": "Trimetazidine nitrosamine formation in aqueous sodium nitrite solution (LC/MS dosage)", "type": "physicochemical", "conditions": "30 mg/mL in trimetazidine equivalent (low solubility), 40° C. for 22 hours", "description": "as §1, §2, §3", "units": {"Trimetazidine nitrosamine content": "ppm"}, "values": [{"compound": "COc1ccc(CN2CCNCC2)c(OC)c1OC.O=C(O)C(=O)O", "note": "[Comparative Example C]", "Trimetazidine nitrosamine content": 104.0}]}, {"experiment": "Trimetazidine nitrosamine formation in aqueous sodium nitrite solution (LC/MS dosage)", "type": "physicochemical", "conditions": "300 mg/mL in trimetazidine equivalent, stirred at 40° C. for 22 hours", "description": "as §1, §2, §3", "units": {"Trimetazidine nitrosamine content": "ppm"}, "values": [{"compound": "COc1ccc(CN2CCNCC2)c(OC)c1OC", "note": "[Comparative Example A, Trimetazidine dihydrochloride]", "Trimetazidine nitrosamine content": 126.0}, {"compound": "COc1ccc(CN2CCNCC2)c(OC)c1OC.Cl.Cl", "note": "[Comparative Example E]", "Trimetazidine nitrosamine content": 22.0}, {"compound": "COc1ccc(CN2CCNCC2)c(OC)c1OC.O=C(O)C=CC(=O)O", "note": "[Comparative Example F]", "Trimetazidine nitrosamine content": 121.2}, {"compound": "COc1ccc(CN2CCNCC2)c(OC)c1OC.O=C(O)C=CC(=O)O", "note": "[Comparative Example G]", "Trimetazidine nitrosamine content": 31.9}, {"compound": "COc1ccc(CN2CCNCC2)c(OC)c1OC.COc1ccc(CN2CCNCC2)c(OC)c1OC.O=C(O)CCCCC(=O)O", "note": "[Example 1, Trimetazidine Hemiadipate]", "Trimetazidine nitrosamine content": 0.7}, {"compound": "Trimetazidine Hemifumarate [Example 5]", "Trimetazidine nitrosamine content": 0.1}, {"compound": "Trimetazidine Hemimalate [Example 3]", "Trimetazidine nitrosamine content": 0.7}, {"compound": "Trimetazidine Hemiphosphate [Example 7]", "Trimetazidine nitrosamine content": 0.6}, {"compound": "Trimetazidine Hemisuccinate [Example 2]", "Trimetazidine nitrosamine content": 0.5}, {"compound": "Trimetazidine Hemisulfate [Example 4]", "Trimetazidine nitrosamine content": 0.6}, {"compound": "Trimetazidine Hemitartrate [Example 6]", "Trimetazidine nitrosamine content": 0.6}, {"compound": "trimetazidine hemioxalate [Comparative Example B]", "Trimetazidine nitrosamine content": 1.1}]}, {"experiment": "Solubility of the trimetazidine salts in the aqueous test solution", "type": "physicochemical", "conditions": "300 mg/mL in trimetazidine equivalent not used", "values": [{"compound": "COc1ccc(CN2CCNCC2)c(OC)c1OC.O=C(O)C(=O)O", "note": "[Comparative Example C]", "Solubility": "low solubilities"}, {"compound": "COc1ccc(CN2CCNCC2)c(OC)c1OC.O=C(O)C(=O)O.O=C(O)C(=O)O", "note": "[Comparative Example D]", "Solubility": "low solubilities"}]}]}
